Test results as given in EP4471048A1, “PEPTIDE INHIBITORS OF INTERLEUKIN-23 RECEPTOR” (Zealand Pharma A/S, priority 2023, dated 2024).
Where a SMILES comes first, the peptide text is derived from it. Bridges are numbered along the chain shown (N, C = ends). [ ]: non-standard residue; d: D form. 2Nal = N[C@@H](Cc1ccc2ccccc2c1)C(=O)O; AEF = NCCOc1ccc(C[C@H](N)C(=O)O)cc1; 3Pal = N[C@@H](Cc1cccnc1)C(=O)O; Lys(Me) = CNCCCC[C@H](N)C(=O)O; αMeL = CC(C)C[C@](C)(N)C(=O)O; Dab = NCC[C@H](N)C(=O)O

Columns and labels:
[1] = Peptide stability in simulated gastric fluid (SGF); assay type: in vitro ADME; settings: 37 °C, porcine pepsin; for remaining at 1 h, 10 µM / remaining at 4 h, 10 µM: pig, simulated gastric fluid (SGF) with porcine pepsin (3.2 g/L); for remaining at 1 h, 10 µM: pH 1.2, 1 h, read-out: SGF (% remaining 1 h)
Procedure: (§1) SGF was prepared by dissolving sodium chloride (0.2 g) in 50 mL of water. A volume of 0.7 mL of 10 M HCl was added to adjust the pH of the solution to 1.2 and the volume made up to 100 mL with water. […] SIF was prepared by dissolving monobasic potassium phosphate (0.68 g) in 50 mL of water and adjusting the pH to 6.8 with 1 M NaOH. The volume was subsequently made up to 100 mL with water. 200 mg porcine pancreatin (P1625, Sigma Aldrich) was gently dissolved into 20 mL preheated (37 °C) solution (10 g/L) immediately prior to the incubation.
(§2) The incubation was performed at 37 °C with gentle shaking. […] After the last timepoint, the sampling plate was mixed for 10 min on a shaking table and centrifuged 10 min at 2200 g. 70 µL resulting supernatant was diluted with 150 µL water, mixed and centrifugated before analysis by liquid chromatography high resolution mass spectrometry. […] Percent remaining at each timepoint was calculated relative to timepoint zero based on absolute peak areas.
Compounds with a SGF stability (after 4 h) above 70% are considered highly SGF stable. […] Table 3-4: SGF data

[2] = molecular target: T1, human IL-23R (Homo sapiens, UniProt Q5VWK5); assay: biochemical; settings: for Emax: read-out: % displacement (hIL-23R NIuc)
T1 sequence (Q5VWK5 22-629): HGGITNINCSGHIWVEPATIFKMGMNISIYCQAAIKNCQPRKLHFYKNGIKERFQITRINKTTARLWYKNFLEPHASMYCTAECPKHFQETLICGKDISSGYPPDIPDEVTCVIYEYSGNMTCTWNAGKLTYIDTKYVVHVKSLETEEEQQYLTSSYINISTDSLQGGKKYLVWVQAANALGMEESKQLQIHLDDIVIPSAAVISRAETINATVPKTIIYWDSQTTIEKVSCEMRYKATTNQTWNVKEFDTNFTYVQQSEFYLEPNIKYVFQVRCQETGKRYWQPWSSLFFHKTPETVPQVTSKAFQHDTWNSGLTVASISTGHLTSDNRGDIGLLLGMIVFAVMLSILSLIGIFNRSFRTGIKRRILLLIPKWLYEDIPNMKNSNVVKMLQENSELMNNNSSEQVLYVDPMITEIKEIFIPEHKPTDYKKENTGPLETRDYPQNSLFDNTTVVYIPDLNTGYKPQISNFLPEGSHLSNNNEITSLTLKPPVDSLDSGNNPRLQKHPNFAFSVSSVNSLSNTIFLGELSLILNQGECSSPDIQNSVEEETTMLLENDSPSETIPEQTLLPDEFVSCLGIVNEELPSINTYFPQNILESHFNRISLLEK
Procedure, shortened: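 BRET displacement of a TAMRA-labelled reference compound from N-terminal Nanoluc-IL-23R fusion protein in membranes from stably transfected HEK293 cells. Incubation 2 h at room temperature, then Nanoluc substrate was added and the TAMRA/Nanoluc ratio read. IC50 and maximal displacement came from 4-parameter logistic fits.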

[3] = Peptide stability in simulated intestinal fluid (SIF); assay type: in vitro ADME; settings: 37 °C, porcine pancreatin; for SIF (% remaining 4 h): 10 µM; for SIF (% remaining 4 h) / remaining at 4 h, 10 µM: pH 6.8, 4 h; for remaining at 1 h, 10 µM / remaining at 4 h, 10 µM: pig; for remaining at 1 h, 10 µM: pH 6.8, 1 h
Procedure: as §1, §2
Compounds with a SIF stability (after 4 h) above 70% are considered highly SIF stable.

[4] = pH 1.2, 10 µM, pH 1.2, 4 h, read-out: SGF (% remaining 4 h)
[5] = SAR tables, % peptide remaining, read-out: SIF (% after 4 h)
[6] = read-out: SIF (% remaining 4 h)

SMILES	remaining at 1 h, 10 µM ([1]; pH 1.2, 10 µM) [%]	remaining at 4 h, 10 µM [1, 4] [%]	IC50 [2] [nM]	Emax [2] [%]	SIF (% remaining 4 h) [3] [%]	remaining at 1 h, 10 µM [3] [%]	remaining at 4 h, 10 µM [3, 5] [%]	remaining at 4 h, 10 µM [3, 6] [%]	SGF (% remaining 4 h) ([1]; 10 µM, pH 1.2, 4 h) [%]	remaining at 4 h, 10 µM ([1]; pH 1.2, SAR tables, % peptide remaining, 10 µM, pH 1.2, 4 h, read-out: SGF (% after 4 h)) [%]	% displacement (hIL-23R NIuc) [2] [%]
CC[C@H](C)[C@@H]1NC(=O)[C@@H]2CCCCNC(=O)CC[C@@H](C(=O)NCCCCC(=O)N[C@@H](Cc3cccnc3)C(=O)NC)NC(=O)[C@](C)(CC(C)C)NC(=O)[C@H](Cc3ccc4ccccc4c3)NC(=O)[C@H](Cc3ccc(OCCN)cc3)NC(=O)[C@H](CCC(=O)N2)NC(=O)[C@H](CCC(N)=O)NC(=O)[C@H](Cc2c[nH]c3ccccc23)NC(=O)[C@H](C(C)C)NC1=O [Compound 64, K(1c)(6c)^†IVWQE(6c)[Y(2-aminoethoxy)][2-Nal][2-Me-Leu]E(1c)[5-Aminopentanoyl][3-(3-Pyridyl)-Ala]-[NHMe]]	102	90	11	99	86	93	86				
CC[C@H](C)[C@@H]1NC(=O)[C@@H]2CCCCNC(=O)CC[C@@H](C(=O)N[C@@H](CCN)C(=O)NCCc3cccnc3)NC(=O)[C@](C)(CC(C)C)NC(=O)[C@H](Cc3ccc4ccccc4c3)NC(=O)[C@H](Cc3ccc(OCCN)cc3)NC(=O)[C@H](CCC(=O)N2)NC(=O)[C@H](CCC(N)=O)NC(=O)[C@H](Cc2c[nH]c3ccccc23)NC(=O)[C@H](C(C)C)NC1=O [Compound 66, K(1c)(6c)^†IVWQE(6c)[Y(2-aminoethoxy)][2-Nal][2-Me-Leu]E(1c)[Dab]-[NH-2-(pyridin-3-yl)ethyl]]	98	97	0.12	101		108		112			
CC[C@H](C)[C@@H]1NC(=O)[C@@H]2CCCCNC(=O)CC[C@@H](C(=O)N[C@@H](CCN)C(=O)N[C@@H](Cc3cccnc3)C(=O)NC)NC(=O)CNC(=O)[C@H](Cc3ccc4ccccc4c3)NC(=O)[C@H](Cc3ccc(OCCN)cc3)NC(=O)[C@H](CCC(=O)N2)NC(=O)[C@H](CCC(N)=O)NC(=O)[C@H](Cc2c[nH]c3ccccc23)NC(=O)[C@H](C(C)C)NC1=O [Compound 68, K(1c)(6c)^†IVWQE(6c)[Y(2-aminoethoxy)][2-Nal]GE(1c)[Dab][3-(3-Pyridyl)-Ala]-[NHMe]]	91		0.072	99	0	33	0		95	95	
CC[C@H](C)[C@@H]1NC(=O)[C@@H]2CCCCNC(=O)CC[C@@H](C(=O)N[C@@H](Cc3cnc[nH]3)C(=O)N[C@@H](Cc3cccnc3)C(=O)NC)NC(=O)[C@](C)(CC(C)C)NC(=O)[C@H](Cc3ccc4ccccc4c3)NC(=O)[C@H](Cc3ccc(OCCN)cc3)NC(=O)[C@H](CCC(=O)N2)NC(=O)[C@H](CCC(N)=O)NC(=O)[C@H](Cc2c[nH]c3ccccc23)NC(=O)[C@H](C(C)C)NC1=O [Compound 69, K(1c)(6c)^†IVWQE(6c)[Y(2-aminoethoxy)][2-Nal][2-Me-Leu]E(1c)H[3-(3-Pyridyl)-Ala]-[NHMe]]	112	102	0.12	101		89	33				
CC[C@H](C)[C@@H]1NC(=O)[C@@H]2CCCCNC(=O)CC[C@@H](C(=O)N[C@H](Cc3cnc[nH]3)C(=O)N[C@@H](Cc3cccnc3)C(=O)NC)NC(=O)[C@](C)(CC(C)C)NC(=O)[C@H](Cc3ccc4ccccc4c3)NC(=O)[C@H](Cc3ccc(OCCN)cc3)NC(=O)[C@H](CCC(=O)N2)NC(=O)[C@H](CCC(N)=O)NC(=O)[C@H](Cc2c[nH]c3ccccc23)NC(=O)[C@H](C(C)C)NC1=O [Compound 70, K(1c)(6c)^†IVWQE(6c)[Y(2-aminoethoxy)][2-Nal][2-Me-Leu]E(1c)[{d}H][3-(3-Pyridyl)-Ala]-[NHMe]]	102	95	0.41	101		101	72				
CC[C@H](C)[C@@H]1NC(=O)[C@@H]2CCCCNC(=O)CC[C@@H](C(=O)N[C@@H](Cc3cnc4ccccc4c3)C(=O)N[C@@H](Cc3cccnc3)C(=O)NC)NC(=O)[C@](C)(CC(C)C)NC(=O)[C@H](Cc3ccc4ccccc4c3)NC(=O)[C@H](Cc3ccc(OCCN)cc3)NC(=O)[C@H](CCC(=O)N2)NC(=O)[C@H](CCC(N)=O)NC(=O)[C@H](Cc2c[nH]c3ccccc23)NC(=O)[C@H](C(C)C)NC1=O [Compound 71, K(1c)(6c)^†IVWQE(6c)[Y(2-aminoethoxy)][2-Nal][2-Me-Leu]E(1c)[3-(3-Quinolinyl)-Ala][3-(3-Pyridyl)-Ala]-[NHMe]]	100	100	0.084		6	55	6				100
CC[C@H](C)[C@@H]1NC(=O)[C@@H]2CCCCNC(=O)CC[C@@H](C(=O)N3CCNC3C(=O)N[C@@H](Cc3cccnc3)C(=O)NC)NC(=O)[C@](C)(CC(C)C)NC(=O)[C@H](Cc3ccc4ccccc4c3)NC(=O)[C@H](Cc3ccc(OCCN)cc3)NC(=O)[C@H](CCC(=O)N2)NC(=O)[C@H](CCC(N)=O)NC(=O)[C@H](Cc2c[nH]c3ccccc23)NC(=O)[C@H](C(C)C)NC1=O (stereo partly drawn) [Compound 72, K(1c)(6c)^†IVWQE(6c)[Y(2-aminoethoxy)][2-Nal][2-Me-Leu]E(1c)[(R,S)-Imidazolidin-2-carbonyl][3-(3-Pyridyl)-Ala]-[NHMe]]	94	107	99	97	110	102	110				
CC[C@H](C)[C@@H]1NC(=O)[C@@H]2CCCCNC(=O)CC[C@@H](C(=O)N[C@@H](Cc3cn(C)cn3)C(=O)N[C@@H](Cc3cccnc3)C(=O)NC)NC(=O)[C@](C)(CC(C)C)NC(=O)[C@H](Cc3ccc4ccccc4c3)NC(=O)[C@H](Cc3ccc(OCCN)cc3)NC(=O)[C@H](CCC(=O)N2)NC(=O)[C@H](CCC(N)=O)NC(=O)[C@H](Cc2c[nH]c3ccccc23)NC(=O)[C@H](C(C)C)NC1=O [Compound 73, K(1c)(6c)^†IVWQE(6c)[Y(2-aminoethoxy)][2-Nal][2-Me-Leu]E(1c)[H(1-Me)][3-(3-Pyridyl)-Ala]-[NHMe]]	100	99	0.12			11		0			102
CC[C@H](C)[C@@H]1NC(=O)[C@@H]2CCC(=O)N(C)CCCC[C@@H](C(=O)N[C@@H](CCN)C(=O)N[C@@H](Cc3cccnc3)C(=O)NC)NC(=O)[C@](C)(CC(C)C)NC(=O)[C@H](Cc3ccc4ccccc4c3)NC(=O)[C@H](Cc3ccc(OCCN)cc3)NC(=O)[C@H](CCC(=O)N2)NC(=O)[C@H](CCC(N)=O)NC(=O)[C@H](Cc2c[nH]c3ccccc23)NC(=O)[C@H](C(C)C)NC1=O [Compound 74, E(1c)(6c)^†IVWQE(6c)[Y(2-aminoethoxy)][2-Nal][2-Me-Leu][K(Me)](1 c)[Dab][3-(3-Pyridyl)-Ala]-[NHMe]] (EIVWQE[AEF][2Nal][αMeL][Lys(Me)][Dab][3Pal]-NHMe; lactam 1-10, N-6)	94	92		99		91		89			
